Experimental data taken from patent US8741923B2, “Oxadiazole fused heterocyclic derivatives useful for the treatment of multiple sclerosis” (Merck Serono SA, priority 2008, dated 2014).

Tests used:
S1P1 [1] = target: T1, S1P1 (Homo sapiens (Human), UniProt P21453); test: Receptor binding assay ([33P]sphingosine 1-phosphate, SPA) on S1P1 membranes; settings: membranes from CHO cells expressing S1P1
Description: (§1) Receptor binding assay: Membranes were prepared from CHO cells expressing S1P1 or S1P3 for use in ligand and 35S-GTPγS binding studies. Cells were suspended in 50 mM TRIS, pH 7.4, 2 mM EDTA, 250 mM Sucrose (buffer A) and 1× Complete protease inhibitor cocktail (Roche), and disrupted at 4° C. by N2 decompression using a cell disruption bomb (Parr Instrument). Following centrifugation at 1000 RPM for 10 min at 4° C., the supernatant was suspended in buffer A and centrifuged again at 19000 RPM for 60 min at 4° C. The pellet was then suspended in 10 mM HEPES, pH 7.4, 1 mM EDTA, 250 mM Sucrose (Buffer B), and 1× Complete EDTA-free protease inhibitor cocktail and homogenized using a potter. Membranes were flash frozen in liquid N2 and stored at −80° C. [33P]sphingosine 1-phosphate (3000 Ci/mmol; American Radiolabeled Chemicals, Inc.) was added to test compounds in DMSO. Membranes and WGA SPA beads (GE Healthcare) were added to give a final volume of 100 μl in 96-well plates with assay concentrations of 25 μM or 10 μM [33P]sphingosine 1-phosphate (respectively for S1P1 or S1P3), 50 mM HEPES, pH 7.5, 5 mM MgCl2, 100 mM NaCl, 0.4% fatty acid-free BSA, 1-5 μg/well of proteins and 100 μg/well of WGA SPA beads. Binding was performed for 60 min at RT on a shaker and bound radioactivity was measured on a PerkinElmer 1450 MicroBeta counter. Specific binding was calculated by subtracting remaining radioactivity in the presence of 1000-fold excess of unlabeled S1P. Binding data were analyzed using the GraphPad Prism program.

S1P1 [2] = target: T1, S1P1; test: 35S-GTPγS binding, S1P1 membranes; format: biochemical; settings: membranes from CHO cells expressing S1P1
Description: as §1, with “Membranes and WGA SPA beads (GE Healthcare) were added to give a final volume of 100 μl in 96-well plates with assay concentrations of 25 μM or 10 μM [33P]sphingosine 1-phosphate (respectively for S1P1 or S1P3), 50 mM HEPES, pH 7.5, 5 mM MgCl2, 100 mM NaCl, 0.4% fatty acid-free BSA, 1-5 μg/well of proteins and 100 μg/well of WGA SPA beads. Binding was performed for 60 min at RT on a shaker and bound radioactivity was measured on a PerkinElmer 1450 MicroBeta counter.” left out
(§2) Measurements of 35S-GTPγS Binding:
After 60 min incubation at 30° C. on a shaker, plates were centrifuged for 10 min at 2000 RPM. […] Triplicate samples were averaged and expressed as % response relative to S1P activation in absence of compound (n=2).

S1P3 = S1P3 (Homo sapiens (Human), UniProt Q99500); test: 35S-GTPγS binding, S1P3 membranes; format: biochemical; settings: membranes from CHO cells expressing S1P3
Sequence of S1P3 (Q99500 whole entry, species assumed): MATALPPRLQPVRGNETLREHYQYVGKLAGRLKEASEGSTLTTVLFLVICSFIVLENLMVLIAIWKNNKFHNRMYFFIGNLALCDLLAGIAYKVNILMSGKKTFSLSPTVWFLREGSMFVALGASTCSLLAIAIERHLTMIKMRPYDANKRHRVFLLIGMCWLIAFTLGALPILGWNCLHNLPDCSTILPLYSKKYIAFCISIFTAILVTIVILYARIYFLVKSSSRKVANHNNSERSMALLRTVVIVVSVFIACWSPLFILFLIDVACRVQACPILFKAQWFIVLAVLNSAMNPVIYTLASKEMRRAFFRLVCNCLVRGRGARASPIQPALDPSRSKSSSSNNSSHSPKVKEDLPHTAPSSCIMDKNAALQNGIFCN
Description: as §1, §2
Membranes (1 to 10 μg protein) prepared as described above, were incubated in 96-well Scintiplates (PerkinElmer) with test compounds diluted in DMSO, in 180 μl of 20 mM HEPES, pH 7.4, 10 mM MgCl2, 2 μg/well Saponin, 0.2% fatty acid free BSA (Assay buffer), 140 mM NaCl and 1.7 μM GDP. The assay was initiated with the addition of 20 μl of 1.5 nM [35S]-GTPγS (1100 Ci/mmol; GE Healthcare) in assay buffer. After 60 min incubation at 30° C. on a shaker, plates were centrifuged for 10 min at 2000 RPM. Supernatant was discarded and membrane bound radioactivity was measured on a PerkinElmer 1450 MicroBeta counter. Triplicate samples were averaged and expressed as % response relative to S1P activation in absence of compound (n=2).

T1 sequence (P21453 whole entry, species assumed): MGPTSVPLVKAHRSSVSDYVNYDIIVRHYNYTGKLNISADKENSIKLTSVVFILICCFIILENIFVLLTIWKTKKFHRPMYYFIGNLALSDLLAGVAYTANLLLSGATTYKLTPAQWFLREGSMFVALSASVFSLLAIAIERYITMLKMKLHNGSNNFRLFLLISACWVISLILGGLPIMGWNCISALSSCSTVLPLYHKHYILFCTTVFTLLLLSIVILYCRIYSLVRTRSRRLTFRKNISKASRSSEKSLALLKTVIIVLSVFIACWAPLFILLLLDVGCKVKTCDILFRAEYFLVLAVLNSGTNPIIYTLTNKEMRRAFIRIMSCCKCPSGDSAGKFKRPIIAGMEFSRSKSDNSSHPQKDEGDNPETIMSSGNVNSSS

Compound	Ki (S1P1 [1]) [nM]	EC50 (S1P1 [2]) [nM]	EC50 (S1P3) [nM]
CC1CCCCN1c1ccc(-c2nc(-c3ccc4[nH]cnc4c3)no2)cc1C(F)(F)F (stereo not shown) [Compound 1, 5-{5-[4-(2-methylpiperidin-1-yl)-3-(trifluoromethyl)phenyl]-1,2,4-oxadiazol-3-yl}-1H-benzimidazole]	5	11	621
COCc1cc(-c2nc(-c3ccc4[nH]cnc4c3)no2)ccc1-c1ccccc1C [Compound 4, 5-{5-[2-(methoxymethyl)-2′-methylbiphenyl-4-yl]-1,2,4-oxadiazol-3-yl}-1H-benzimidazole]	5	8.4	325
Cc1ccccc1-c1ccc(-c2nc(-c3ccc4nc[nH]c4c3)no2)cc1CN(C)C [Compound 5, 1-{4-[3-(1H-benzimidazol-6-yl)-1,2,4-oxadiazol-5-yl]-2′-methylbiphenyl-2-yl}-N,N-dimethylmethanamine]	5	3.4	–
CC1CCCCN1c1ccc(-c2nc(-c3ccc4c(c3)CNCC4)no2)cc1C(F)(F)F (stereo not shown) [Compound 10, 7-{5-[4-(2-methylpiperidin-1-yl)-3-(trifluoromethyl)phenyl]-1,2,4-oxadiazol-3-yl}-1,2,3,4-tetrahydroisoquinoline]	3	12	584
CC1CCCCN1c1ccc(-c2nc(-c3ccc4c(c3)CNCC4)no2)cc1NS(C)(=O)=O (stereo not shown) [Compound 11, N-{2-(2-methylpiperidin-1-yl)-5-[3-(1,2,3,4-tetrahydroisoquinolin-7-yl)-1,2,4-oxadiazol-5-yl]phenyl}methanesulfonamide]	4	6	159
CC1CCCCN1c1ccc(-c2nc(-c3ccc4c(c3)CNCC4)no2)cc1C#N (stereo not shown) [Compound 12, 2-(2-methylpiperidin-1-yl)-5-[3-(1,2,3,4-tetrahydroisoquinolin-7-yl)-1,2,4-oxadiazol-5-yl]benzonitrile]	0.8	9	–
COCc1cc(-c2nc(-c3ccc4c(c3)CNCC4)no2)ccc1-c1ccccc1C [Compound 15, 7-{5-[2-(methoxymethyl)-2′-methylbiphenyl-4-yl]-1,2,4-oxadiazol-3-yl}-1,2,3,4-tetrahydroisoquinoline]	1	6	–
COCc1cc(-c2nc(-c3ccc4c(c3)CN(CC(=O)O)CC4)no2)ccc1-c1ccccc1C [Compound 16, [7-{5-[2-(methoxymethyl)-2′-methylbiphenyl-4-yl]-1,2,4-oxadiazol-3-yl}-3,4-dihydroisoquinolin-2(1H)-yl]acetic acid]	0.7	2.1	–
CC1CCCCN1c1ccc(-c2nc(-c3ccc4[nH]ccc4c3)no2)cc1NS(C)(=O)=O (stereo not shown) [Compound 22, N-[5-[3-(1H-indol-5-yl)-1,2,4-oxadiazol-5-yl]-2-(2-methylpiperidin-1-yl)phenyl]methanesulfonamide]	164	16	–
COc1cc(-c2nc(-c3ccc4[nH]ncc4c3)no2)ccc1-c1cscc1C [Compound 24, 5-{5-[3-methoxy-4-(4-methyl-3-thienyl)phenyl]-1,2,4-oxadiazol-3-yl}-1H-indazole]	3	4	–
Cc1ccccc1-c1ccc(-c2nc(-c3ccc4[nH]ncc4c3)no2)cc1C [Compound 25, 5-[5-(2,2′-dimethylbiphenyl-4-yl)-1,2,4-oxadiazol-3-yl]-1H-indazole]	11	32	–
CCC1CCCCN1c1ccc(-c2nc(-c3ccc4[nH]cnc4c3)no2)cc1COC (stereo not shown) [Compound 27, 5-{5-[4-(2-ethylpiperidin-1-yl)-3-(methoxymethyl)phenyl]-1,2,4-oxadiazol-3-yl}-1H-benzimidazole]	4.26	17	–
